This note sets out measurements from patent US10328075B2, “Method of treatment and compounds for use therein” (Baker Heart and Diabetes Institute, priority 2015, dated 2019).

SMILES strings stand for the structures. Read-outs that look alike come from different tables or passages of the source.

For this assay, the target named is T1, hFPR1 (Homo sapiens, UniProt P21462).
T1 construct: expressed in transfected cells
T1 sequence (P21462 1-350): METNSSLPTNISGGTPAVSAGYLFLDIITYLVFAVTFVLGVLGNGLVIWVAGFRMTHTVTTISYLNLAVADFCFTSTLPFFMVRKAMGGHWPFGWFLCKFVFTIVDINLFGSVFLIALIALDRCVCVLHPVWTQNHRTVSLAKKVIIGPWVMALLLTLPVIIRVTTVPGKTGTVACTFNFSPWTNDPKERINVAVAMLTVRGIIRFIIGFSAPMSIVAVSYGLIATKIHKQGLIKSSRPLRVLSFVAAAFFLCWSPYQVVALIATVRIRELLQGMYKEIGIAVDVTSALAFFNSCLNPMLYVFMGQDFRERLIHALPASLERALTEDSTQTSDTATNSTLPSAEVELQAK
The assay can be described thus: ERK1/2 phosphorylation (AlphaScreen SureFire) in hFPR1-FlpIn-CHO cells. The class given is cell-based. From the text:
cDNDA construct and generation of stable cell lines: cDNA in pcDNA3.1^+ encoding the human formyl peptide receptors (FPR) subtypes, hFPR1, hFPR2 and hFPR3 was obtained from Invitrogen. The sequences for 3 hFPR receptors were amplified by PCR and cloned into the Gateway entry vector, pDONR202™, using the BP clonase enzyme mix, according to the manufactures' instructions (Invitrogen Inc, Carlsbad, Calif., USA). All hFPR receptors constructs in pDONR201™ were subsequently transfected into the pEF5/FRT/V5/dest vector using the LR clonase enzyme mix (Invitrogen). Receptor constructs (pEF5/FRT/V5/dest) were used to transfect FIp-In CHO cells as described previously (Valant C et al., PNAS, 2014). Cells were selected using 500 μg/mL hydromycin to generate cell lines stably expressing each receptor construct. Cells were maintained and cultured in high glucose DMEM supplemented with 10% FBS, 16 mM HEPES and 500 μg/mL hydromycin at 37° C. under a humidified atmosphere containing 5% CO2.
In the various assays described below, cells were plated into 96-well transparent cell culture plates at 4×10^4 cells per well, cultured overnight in serum-free media at 37° C. in 5% CO2.
Measurement of extracellular signal regulated kinase 1 and 2 phosphorylation (pERK1/2): Initial ERK1/2 phosphorylation at Thr202/Tyr204 time-course experiments were performed to determine the time at which ERK1/2 phosphorylation was maximal after stimulation by each agonist. Cells were seeded onto transparent 96-well cell culture plates at 4×10^4 cells per well. After 6 h, cells were washed once with PBS, and then incubated in serum-free DMEM overnight, to allow FBS-stimulated phosphorylated ERK1/2 levels to subside. […] 10% (v/v) FBS was used as a positive control, with vehicle controls also included. The reaction was terminated by removal of study drugs and lysis of cells with 100 μL of SureFire lysis buffer (TGR Biosciences). Cell were lysed in SureFire lysis buffer and transferred to 384-well opaque proxiplates. Under low-light conditions, a 1:120 (v:v) dilution of AlphaScreen beads (both acceptor and donor):Surefire reaction buffer was prepared, which was mixed with the activation buffer in a ratio of 6:1 (v:v), respectively. Plates were incubated in the dark at 37° C. for 1 h before the fluorescence signal was measured by a Fusion-α plate reader (PerkinElmer Life and Analytical Sciences, Foster city, CA, USA) with standard AlphaScreen settings. Data were normalized to the maximal response elicited by 10% (v/v) FBS at the same time point.
Receptor mediated pERK1/2 levels were determined using the AlphaScreen™ ERK1/2 SureFire™ kit, as described previously (Keov, P et al., 2014). For all experiments, 10% FBS was used as internal positive control to stimulate pERK1/2, and which the maximum responses were used for normalization of data, whilst vehicle was used as negative control.
Data analysis: All data were analysed using GraphPad Prism 6.0 (GraphPad Software, San Deigo, Calif., USA). Where appropriate, concentration-response curves were fitted to derive the maximal agonist effect (Emax), and the ligand potency estimate (pEC50), where Emax is the maximal possible response of the system (not the agonist), basal is the basal level of response in the absence of agonist, and pEC50 is the negative logarithm of the agonist concentration that gives a response halfway between Emax and basal.
In the present study, FIp-IN CHO cells and Gateway plasmid were obtained from Invitrogen Inc (Carlsbad, Calif., USA). The sequences for all 3 known human FPRs (hFPR1, hFPR2 and hFPR3) were amplified by PCR and cloned into the Gateway entry vector, pDONR202TM, using the BP clonase enzyme mix, according to the manufacturers' instructions. The hFPR pDONR201TM constructs were subsequently transfected into the pEF5/FRT/V5/dest vector using the LR clonase enzyme mix (Invitrogen).

Setting [1] is: Table 9, read-out: potency (pEC50) pERK1/2, hFPR1-FlpInCHO cells in vitro (converted).

Turning to `Cc1cc(Cc2cccnc2)c(=O)n(CC(=O)Nc2ccc(Cl)cc2)n1` [MIPS-0010396], the EC50 by setting is: under setting [1], 676 nM; (Table 10, receptor not given, values of 10394/10396 equal the hFPR1 values of Table 9, read-out: ERK pEC50 (converted)) 676 nM. In addition, the “ERK Rmax” value (Table 10, receptor not given) amounted to 76 ± 2.

As for `CC(C)C1C(NC(=O)Nc2ccc(Cl)cc2)C(=O)N(c2ccccc2)N1C` (centres unmarked) [BIDI-002], where the note is “10 μM, pilot timecourse”, the “Time of maximal ERK1/2 phosphorylation in hFPR1-CHO cells” value stood at 5 min. Moreover, the Emax worked out at 61 ± 9% (Table 2, percentage of ERK1/2 phosphorylation elicited by 10% FBS, read-out: Emax (%), ERK1/2 phosphorylation, hFPR1-Flpln-CHO) and 61 ± 9% (Table 8, percent of response elicited by 10% FBS, read-out: Emax, ERK1/2 phosphorylation, hFPR1-Flpln-CHO). In addition, the EC50 by setting is: (Table 2, read-out: pEC50, ERK1/2 phosphorylation, hFPR1-Flpln-CHO (converted)) 67.6 nM; (Table 8, read-out: pEC50, ERK1/2 phosphorylation, hFPR1-Flpln-CHO (converted)) 63.1 nM; under setting [1], 67.6 nM. Further, the “ΔLog(τ/KA), ERK1/2 phosphorylation, hFPR1-Flpln-CHO” value (Table 8, normalized transduction coefficient, reference agonist Cmpd43) came to 0.0. Also, where the note is “Table 8, transduction coefficient”, the “Log(τ/KA), ERK1/2 phosphorylation, hFPR1-Flpln-CHO” value is on record as 7.3 ± 0.1.
